The values that follow come from PubChem BioAssay (NCI).

Experiment in all cases: growth of human tumour cells (NCI), 48 h
Assay [1] relates to MDA-MB-435.
The subject of assay [2] is SF-295 CNS.
Assay [3] relates to SF-539 CNS.
The subject of assay [4] is M14 melanoma.
The subject of assay [5] is SK-OV-3 ovarian.
Assay [6] relates to OVCAR-3 ovarian.
For assay [7], the system named is BT-549 breast.
The subject of assay [8] is CCRF-CEM leukemia.
In assay [9] the test system is A549 NSCLC.
Assay [10] concerns HCC-2998 colon.

Molecules are shown by their SMILES.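 48-hour exposure; five concentrations; linearly interpolated endpoints. TGI is the concentration that stops growth completely.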

For `O=C(Nc1nn[nH]n1)c1nc(-c2ccccc2)cc(=O)[nH]1`, the TGI in assay [1], in assay [2], in assay [3], in [4], in assay [5] and in [6] was above 100 µM each time. Also, the TGI in assay [7], in [8], in assay [9] and in [10] was above 100 µM throughout.
As for `CC(C)(C)OC(=O)c1ccc(NCC2=C(Br)C(=O)C=CC2=O)cc1`, the TGI in assay [1] is 41.3 µM; in [2], above 100 µM; in assay [3], 52.8 µM; in [4], 85.4 µM; in assay [5], above 100 µM; in assay [6], 27.7 µM. The TGI in [7] is 26.5 µM; in assay [8], above 24.9 µM; in assay [9], above 100 µM; in assay [10] it was 48 µM.
For the compound `CC1=CCC[C@H]2[C@](C)(CC3=CC(=O)C(SCC(C)C)=CC3=O)[C@@H](C)CC[C@]12C`, the TGI in [1] is 32.5 µM; in assay [2] it was 34.6 µM; in assay [3], 33.2 µM; in [4], 34.7 µM; in assay [5] it was 35.1 µM; in [6], 42.1 µM. In addition, the TGI worked out at 35.8 µM in [7], 3.72 µM in assay [8], 29.9 µM in [9] and 31.5 µM in assay [10].
Take `CC(C)=CCC[C@@H](C)C1=C(O)C(Nc2ccccc2I)=C(C)C(=O)C1=O`: the TGI in assay [1] is above 75 µM; in [2] it was above 38.9 µM; in assay [3] it was 30 µM; in assay [4], above 58.9 µM; in assay [5], 61.5 µM; in assay [6] it was above 47.5 µM. The TGI in assay [7] is above 75 µM; in assay [8] it was above 20.9 µM; in assay [9], above 50.6 µM; in assay [10], 56.7 µM.
For the compound `O=[Se](O)O`, the TGI in assay [1] was above 100 µM; in assay [2] it was 1.7 µM; in assay [3], 2.56 µM; in [4] it was 23.4 µM; in [5] it was 12.8 µM; in assay [6], 10.7 µM. In addition, the TGI in assay [7] was 39 µM; in assay [8], above 100 µM; in [9], above 100 µM; in assay [10], above 100 µM.
As to `CCN(CC)C(=O)Cn1c2c(c3ccccc31)CCCC2`, the TGI in assay [1], in assay [2], in assay [3], in [4], in assay [5] and in assay [7] was above 100 µM throughout. The TGI in assay [8], in assay [9] and in assay [10] was above 100 µM in each case.
`NC(=O)CN1C=CCC(C(N)=O)=C1`: the TGI in assay [1], in assay [2], in assay [3], in assay [4], in assay [5] and in assay [6] was above 100 µM in each case. Further, the TGI in assay [7], in assay [8], in assay [9] and in assay [10] was above 100 µM in each case.
Regarding `CCN(CC)C(=O)CCN1CC1`, the TGI in [1], in assay [2], in assay [3], in assay [4], in assay [5] and in assay [6] was above 10 µM throughout. The TGI in assay [7], in assay [8], in [9] and in assay [10] was above 10 µM each time.
On to `CC(CNC(N)=O)NC(N)=O` (configuration not stated), for which the TGI in assay [1], in [2], in [3], in [4], in assay [5] and in assay [6] was above 100 µM in each case. For the same compound, the TGI in assay [7], in [8], in [9] and in assay [10] was above 100 µM each time.
Regarding `O=[N+]([O-])/C(C(Cl)=C(Cl)Cl)=C(/Nc1cccc2cccnc12)n1nnc2ccccc21`, the TGI in [1] turned out to be 33 µM; in assay [2], 42.2 µM; in [3], 38.2 µM; in [4], 25.5 µM; in assay [5], 32.9 µM; in assay [6], 23.7 µM. The TGI in [7] is 35.8 µM; in assay [8], above 100 µM; in assay [9], above 100 µM; in [10], above 100 µM.
For the compound `COC1=CC(=O)N(C)C(O)C1(C#N)OC1OC(CO)C(O)C(O)C1O` (configuration not stated), the TGI in [1], in assay [2], in assay [3], in assay [4], in assay [5] and in assay [6] was above 100 µM in each case. In addition, the TGI in assay [7] is above 100 µM; in [8], above 10 µM; in assay [9] it was above 100 µM; in assay [10], above 100 µM.
Consider `CC(=O)OC[C@H]1On2nnnc2[C@H](OC(C)=O)[C@@H](OC(C)=O)[C@@H]1OC(C)=O`, for which the TGI in assay [1], in assay [2], in assay [3], in [5], in assay [6] and in assay [7] was above 100 µM throughout. In addition, the TGI in assay [8], in [9] and in [10] was above 100 µM in each case.
Regarding `NCCSCCC(=O)O`, the TGI in [1] was above 100 µM; in assay [2] it was above 92.3 µM; in [3] it was above 100 µM; in assay [4], above 100 µM; in assay [5] it was above 100 µM; in [6] it was above 100 µM. The TGI in assay [7] is above 100 µM; in [8], above 100 µM; in [9], above 100 µM; in [10], 98.4 µM.
For the compound `Cc1ncc(COP(=O)(O)O)c(/C=C2\SC(=S)NC2=O)c1O`, the TGI in [1], in [2], in [3], in assay [4], in assay [5] and in assay [6] was above 100 µM throughout. Besides, the TGI in [7], in [9] and in assay [10] was above 100 µM each time.
